Test results as given in patent publication US5759995A, “Antiviral treatment” (priority 1996, dated 1998).

Tests used:
HSV-2 [1] = test: Combination study with acyclovir using the HSV-2 ELISA assay; type: cell-based, Herpes Simplex virus 2; details: cyclomarin-A 0 to 16 μg/ml, acyclovir 0 to 5 μg/ml
Description: The ability of cyclomarin-A to inhibit HSV-2 was tested in a culture-based ELISA assay. This assay measures viral glycoprotein inserted into the surface membrane of infected cells, a step in the process of viral replication. Vero cells (African Green monkey kidney cells) were grown in RPMI-1640 medium with L-glutamine (Quality Biological, Gaithersburg, Md.) with 5% fetal bovine serum (FBS) and passaged twice weekly by trypsinization. These were plated in 96-well sterile tissue culture plates at 2×10^4 cells/well. After incubation overnight at 37° C. in a humidified atmosphere with 5% CO2, wells were inoculated with 1000 plaque forming units per well (PFU/well) HSV-2 (MacIntyre strain, ATCC # VR-539), previously titered by plaque assay and stored at -80° C. Virus was absorbed for 1 hour. Cyclomarin-A was diluted to concentrations between 10^-7 g/ml and 10^-4 g/ml in 50% DMSO and added to the cells in a final volume of 1.5 μl with 150 μl RPMI and 1% FBS. […]
Plates were incubated for 1 hour with a rabbit anti-HSV-2 IgG antibody diluted 1:5000 (DAKO, Carpenteria, Calif., catalog #B116), washed with PBS and incubated another hour with an HRP-labeled goat anti-rabbit antibody diluted 1:4000 (DAKO, catalog #PO448). […] OD was measured spectrophotometrically at a wavelength of 450 nm. Percent inhibition of HSV-2 was calculated against an infected, vehicle control (DMSO) with no drug added. […]

HSV-2 [2] = test: Multiplicity of infection study using the HSV-2 ELISA assay; type: cell-based, Herpes Simplex virus 2; details: 18 hours
Description: The ability of cyclomarin-A to inhibit HSV-2 was tested in a culture-based ELISA assay. This assay measures viral glycoprotein inserted into the surface membrane of infected cells, a step in the process of viral replication. Vero cells (African Green monkey kidney cells) were grown in RPMI-1640 medium with L-glutamine (Quality Biological, Gaithersburg, Md.) with 5% fetal bovine serum (FBS) and passaged twice weekly by trypsinization. These were plated in 96-well sterile tissue culture plates at 2×10^4 cells/well. After incubation overnight at 37° C. in a humidified atmosphere with 5% CO2, wells were inoculated with 1000 plaque forming units per well (PFU/well) HSV-2 (MacIntyre strain, ATCC # VR-539), previously titered by plaque assay and stored at -80° C. Virus was absorbed for 1 hour. Cyclomarin-A was diluted to concentrations between 10^-7 g/ml and 10^-4 g/ml in 50% DMSO and added to the cells in a final volume of 1.5 μl with 150 μl RPMI and 1% FBS. The final DMSO concentration was 0.5%. Plates were incubated for 18 hours at 37° C., and fixed with 10% formalin to inactivate the virus.
Plates were incubated for 1 hour with a rabbit anti-HSV-2 IgG antibody diluted 1:5000 (DAKO, Carpenteria, Calif., catalog #B116), washed with PBS and incubated another hour with an HRP-labeled goat anti-rabbit antibody diluted 1:4000 (DAKO, catalog #PO448). After washing with PBS, TMB substrate was added for 15 minutes and reaction was stopped with addition of 1M phosphoric acid. OD was measured spectrophotometrically at a wavelength of 450 nm. Percent inhibition of HSV-2 was calculated against an infected, vehicle control (DMSO) with no drug added.
The effect of multiplicity of virus infection on cyclomarin-A activity was examined using the HSV-2 ELISA assay described in Example 1. Vero cell cultures were inoculated with HSV-2 to a final concentration of 500, 1000, 2500, and 5000 PFU/well. After cyclomarin-A was added to cells in 150 μl RPMI and 1% FBS, cells were incubated for 18 hours at which time the ELISA assay was completed. Percent inhibition of HSV-2 replication was calculated against an infected, vehicle control (DMSO) at the appropriate MOI with no drug added.

uninfected Vero cells = test: Vero cell growth inhibition (SRB stain); type: cell-based, African Green monkey; details: 48 hours
Description: The effect of cyclomarin-A on the growth of uninfected Vero cells was examined. Vero cells were grown in RPMI with 5% FBS and passaged twice weekly by trypsinization. These were plated in 96 well sterile tissue culture plates at 2×10^4 cells/well in 200 μl and incubated overnight at 37° C. in a humidified atmosphere with 5% CO2. Cyclomarin-A (10 mg/ml stock solution) was serially diluted (100, 50, 25 and 12.5 μg/ml final concentrations) in 100% DMSO, and added to the cells in a volume of 2 μl. Final DMSO concentration was 1%. Plates were incubated at 37° C. for 48 hours. Cells were fixed by addition of 50% TCA to each well. Plates were incubated at 4° C. for 1 hour. After washing cells with distilled water 0.4% SRB (sulforhodamine B in 1% acetic acid) stain was added to each well. After 25 minutes the stain was washed away with 1% acetic acid and wells were allowed to dry. The remaining stain was resolubilized in 10 mM Tris pH 10.0. Optical density (OD) was determined spectrophotometrically at 650 nm. Percent inhibition of cell growth was calculated based on no drug, vehicle (1% DMSO) control wells as 100%.

COC(c1ccccc1)[C@@H]1NC(=O)[C@H](C)NC(=O)[C@H](CC(C)CO)N(C)C(=O)[C@H](C(O)c2cn(C(C)(C)C3CO3)c3ccccc23)NC(=O)[C@H](C(C)C=C(C)C)NC(=O)[C@H](CC(C)C)N(C)C(=O)[C@H](C(C)C)NC1=O (stereo partly shown) [cyclomarin-A]
Interference with acyclovir in combination (HSV-2 [1]): no interference with acyclovir
Percent inhibition of HSV-2 replication (HSV-2 [2]; 6.25 μg/ml cyclomarin-A, 500 PFU/well): 51%
Percent inhibition of HSV-2 replication (HSV-2 [2]; 6.25 μg/ml cyclomarin-A, 1000 PFU/well): 40%
Percent inhibition of HSV-2 replication (HSV-2 [2]; 6.25 μg/ml cyclomarin-A, 2,500 PFU/well): 17%
Percent inhibition of HSV-2 replication (HSV-2 [2]; 6.25 μg/ml cyclomarin-A, 5000 PFU/well): no detectable inhibition
Percent inhibition of cell growth of uninfected Vero cells (uninfected Vero cells; 100 μg/ml): 27-33%
Effect on growth of uninfected Vero cells (uninfected Vero cells; concentrations below 50 μg/ml): no effect on cell growth
